According to article PMC10620989, “Going beyond Binary: Rapid Identification of Protein–Protein Interaction Modulators Using a Multifragment Kinetic Target-Guided Synthesis Approach” (Journal of Medicinal Chemistry, 2023):

Key:
Bcl-XL = Bcl-XL (Homo sapiens, UniProt Q07817); assay: Multifragment KTGS incubation with Bcl-XL (9 TA x 9 SZ in one well), LC-MS/MS; conditions: 81 combinations in one well, 5 μM Bcl-XL, phosphate buffer pH 7.4, 8 h
[1] = biological target: GST-tagged mouse Mcl-1-(152–309) (Mus musculus, UniProt P97287); assay: Fluorescence polarization competitive binding assay, GST-Mcl-1 / FITC-Bim-BH3; conditions: FP; for IC50: GST-Mcl-1 and fluorescein-labeled Bim BH3 peptide, read-out: IC50 on Mcl-1; for inhibition at 50 µM: compound at 50 µM
Sequence of GST-tagged mouse Mcl-1-(152–309) (P97287 152-309): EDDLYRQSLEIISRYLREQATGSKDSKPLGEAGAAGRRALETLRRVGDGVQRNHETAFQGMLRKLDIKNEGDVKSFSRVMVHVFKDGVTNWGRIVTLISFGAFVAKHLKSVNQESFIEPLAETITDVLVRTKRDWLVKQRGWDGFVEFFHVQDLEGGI

GST-Bcl-XL [2] = biological target: T1, GST-Bcl-XL (Homo sapiens, UniProt Q07817); assay: Fluorescence polarization assay, GST-Bcl-XL / fluorescein-labeled Bak BH3 peptide; type: binding; conditions: FP, GST-Bcl-XL and fluorescein-labeled Bak BH3 peptide; ND = not detected
T1 sequence (Q07817 whole entry, the tested form may be a part): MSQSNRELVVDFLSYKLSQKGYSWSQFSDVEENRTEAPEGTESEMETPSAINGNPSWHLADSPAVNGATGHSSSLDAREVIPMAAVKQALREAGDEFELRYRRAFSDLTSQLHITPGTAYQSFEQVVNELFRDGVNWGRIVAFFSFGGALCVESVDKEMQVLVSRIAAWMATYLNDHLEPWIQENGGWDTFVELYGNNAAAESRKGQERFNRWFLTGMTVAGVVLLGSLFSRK

Mcl-1 [3] = biological target: T2, Mcl-1 (Mus musculus, UniProt P97287); assay: Multifragment KTGS screen against Mcl-1 (5 TA x 38 SZ per well), LC-MS/MS; conditions: multifragment KTGS, 190 combinations per well, 10 μM Mcl-1, 20 μM each fragment, pH 7.4, 37 °C, 10 h; peak area with protein / without protein
T2 sequence (P97287 whole entry, the tested form may be a part): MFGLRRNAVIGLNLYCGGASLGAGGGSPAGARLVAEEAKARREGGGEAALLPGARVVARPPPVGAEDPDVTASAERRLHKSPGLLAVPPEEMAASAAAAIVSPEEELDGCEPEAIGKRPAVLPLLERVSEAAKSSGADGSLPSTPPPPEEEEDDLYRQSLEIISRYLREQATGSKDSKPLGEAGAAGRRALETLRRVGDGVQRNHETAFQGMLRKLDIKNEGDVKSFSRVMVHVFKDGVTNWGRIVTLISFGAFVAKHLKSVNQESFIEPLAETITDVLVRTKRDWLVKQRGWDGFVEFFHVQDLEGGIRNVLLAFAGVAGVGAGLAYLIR

Mcl-1 [4] = biological target: T2, Mcl-1; assay: Binary KTGS incubation (1 TA x 1 SZ) with Mcl-1, LC-MS/MS; conditions: binary incubation mixtures with and without Mcl-1
GST-Bcl-XL [5] = biological target: T1, GST-Bcl-XL; design: method as in PMID 21892513; conditions: 50 μM; ref 15b; cited from earlier work

Sequence of Bcl-XL (Q07817 whole entry, species assumed, the tested form may be a part): as the sequence (Q07817 whole entry, the tested form may be a part) above

**Q.** For CC1(C)CCN(c2ccc(C(=O)NS(=O)(=O)c3ccc(NCCSc4ccccc4)c([N+](=O)[O-])c3)cc2)CC1 [SZ4TA2, reference compound], which Amplification coefficient (Bcl-XL) is on record?
**A.** 15.0

**Q.** For CC1(C)CCN(c2ccc(C(=O)NS(=O)(=O)c3ccc4ccc(S(=O)(=O)NCCSc5ccccc5)cc4c3)cc2)CC1 [SZ7TA2], which Amplification coefficient (Bcl-XL) is on record?
**A.** 15.2

**Q.** Which IC50 [1] does the source give for [N-]=[N+]=NS(=O)(=O)c1ccc(CN(CCSc2ccccc2)Cc2ccc(S(=O)(=O)NC(=O)c3ccccc3)cc2)cc1 [SZ9TA1, O=C(NS(C1=CC=C(CN(CC2=CC=C(S(=O)(N=[N+]=[N-])=O)C=C2)CCSC3=CC=CC=C3)C=C1)(=O)=O)C4=CC=CC=C4] here?
**A.** 19.8 µM

**Q.** And the inhibition at 50 µM [1]?
**A.** 97.3%

**Q.** And the IC50 (GST-Bcl-XL [2])?
**A.** 28.8 µM

**Q.** And the Amplification coefficient (Bcl-XL)?
**A.** 7.3

**Q.** What about the “Amplification coefficient 5TA x 38SZ” value (Mcl-1 [3]) of the same compound?
**A.** 14

**Q.** And the “Amplification coefficient 1TA x 1SZ” value (Mcl-1 [4])?
**A.** 4

**Q.** For COc1cc(OC)cc(C(=O)NS(=O)(=O)c2ccc(CN(CCSc3ccccc3)Cc3ccc(S(=O)(=O)N=[N+]=[N-])cc3)cc2)c1 [SZ9TA5, O=C(NS(C1=CC=C(CN(CC2=CC=C(S(=O)(N=[N+]=[N-])=O)C=C2)CCSC3=CC=CC=C3)C=C1)(=O)=O)C4=CC(OC)=CC(OC)=C4], which IC50 [1] is on record?
**A.** 8.1 µM

**Q.** And the inhibition at 50 µM [1]?
**A.** 99%

**Q.** What about the Amplification coefficient (Bcl-XL) of the same compound?
**A.** 7.6

**Q.** What about the “Amplification coefficient 5TA x 38SZ” value (Mcl-1 [3]) of the same compound?
**A.** 8

**Q.** And the “Amplification coefficient 1TA x 1SZ” value (Mcl-1 [4])?
**A.** 4.5

**Q.** With [N-]=[N+]=NS(=O)(=O)c1ccc(CN(CCSc2ccccc2)Cc2ccc(S(=O)(=O)NC(=O)c3cccc4ccccc34)cc2)cc1 [SZ9TA7, O=C(NS(C1=CC=C(CN(CC2=CC=C(S(=O)(N=[N+]=[N-])=O)C=C2)CCSC3=CC=CC=C3)C=C1)(=O)=O)C4=C(C=CC=C5)C5=CC=C4] as the compound, how does the IC50 [1] read?
**A.** 8.2 µM

**Q.** What about the inhibition at 50 µM [1] of the same compound?
**A.** 94.1%

**Q.** What about the IC50 (GST-Bcl-XL [2]) of the same compound?
**A.** 66.3 µM

**Q.** And the Amplification coefficient (Bcl-XL)?
**A.** 7.1

**Q.** And the “Amplification coefficient 5TA x 38SZ” value (Mcl-1 [3])?
**A.** 23

**Q.** What about the “Amplification coefficient 1TA x 1SZ” value (Mcl-1 [4]) of the same compound?
**A.** 6

**Q.** What about the “inhibition of the Bcl-XL/Bak BH3 interaction” value (GST-Bcl-XL [5]) of the same compound?
**A.** 45%

**Q.** For O=C(Cn1c2ccccc2c2ccccc21)NS(=O)(=O)c1ccc(CN(CCSc2ccccc2)Cc2ccc3c(c2)OCO3)cc1 [SZ31TA15, O=C(NS(C1=CC=C(CN(CC2=CC(OCO3)=C3C=C2)CCSC4=CC=CC=C4)C=C1)(=O)=O)CN5C(C=CC=C6)=C6C7=C5C=CC=C7], which IC50 [1] is on record?
**A.** 14 µM

**Q.** What about the inhibition at 50 µM [1] of the same compound?
**A.** 80.7%

**Q.** And the “IC50 on Bcl-XL” value (GST-Bcl-XL [2])?
**A.** below the detectable threshold

**Q.** And the “Amplification coefficient 5TA x 38SZ” value (Mcl-1 [3])?
**A.** 72

**Q.** What about the “Amplification coefficient 1TA x 1SZ” value (Mcl-1 [4]) of the same compound?
**A.** 6

**Q.** Which IC50 [1] does the source give for COc1ccc(Cc2ccc(C(=O)NS(=O)(=O)c3ccc(CN(CCSc4ccccc4)Cc4ccc5c(c4)OCO5)cc3)cc2)c(OC)c1OC [SZ31TA24, O=C(NS(C1=CC=C(CN(CC2=CC(OCO3)=C3C=C2)CCSC4=CC=CC=C4)C=C1)(=O)=O)C5=CC=C(CC6=C(OC)C(OC)=C(OC)C=C6)C=C5] here?
**A.** 20 µM

**Q.** What about the inhibition at 50 µM [1] of the same compound?
**A.** 82.4%

**Q.** What about the “IC50 on Bcl-XL” value (GST-Bcl-XL [2]) of the same compound?
**A.** below the detectable threshold

**Q.** And the “Amplification coefficient 5TA x 38SZ” value (Mcl-1 [3])?
**A.** 7

**Q.** And the “Amplification coefficient 1TA x 1SZ” value (Mcl-1 [4])?
**A.** 15

**Q.** Which IC50 [1] does the source give for Cc1noc(C)c1-c1ccc(S(=O)(=O)NC(=O)c2ccc(CN3C(=O)C(c4ccc(F)cc4F)=C(c4ccc(F)cc4F)C3=O)cc2)cc1 [SZ32TA42, O=C(NS(C1=CC=C(C2=C(C)ON=C2C)C=C1)(=O)=O)C3=CC=C(CN4C(C(C5=C(F)C=C(F)C=C5)=C(C6=CC=C(F)C=C6F)C4=O)=O)C=C3] here?
**A.** 19.1 µM

**Q.** And the inhibition at 50 µM [1]?
**A.** 91%

**Q.** What about the IC50 (GST-Bcl-XL [2]) of the same compound?
**A.** 43.8 µM

**Q.** And the “Amplification coefficient 5TA x 38SZ” value (Mcl-1 [3])?
**A.** 10

**Q.** What about the “Amplification coefficient 1TA x 1SZ” value (Mcl-1 [4]) of the same compound?
**A.** 6
